“And” between values parts separate entries of the source, which are not always exact repeats. Equal entries are not always repeated.
Experiments:
p62 = target: T1, p62 (Homo sapiens, UniProt Q13501); test: In vitro pulldown assay with biotinylated p62 ligands; assay type: binding; details: biotinylated ligand, HEK293T extracts
T1 construct: expressed in transfected cells; host or cells: HEK293T, transient; whole lysate used
Experimental: A set of synthetic 12-mer peptides corresponding to the N-terminal sequences of the V-BiP (V[19]-[…]-biotin) and V-RGS4 (V^2-[…]-biotin) was C-terminally biotin-conjugated. Alternatively, biotinylated versions of YOK-1304, YT-8-8, YTK-1105, YOK-2204, and PBA were synthesized. To cross-link the above peptides with resin beads, biotin-conjugated peptides, and small molecule were mixed with high-capacity streptavidin agarose resin (Thermo Fisher Scientific) at a ratio of 0.5 mg of peptide per 1 mL of settled resin and incubated on a rotator at 4 °C overnight. After washing five times with PBS, the peptide/small molecule-bead conjugates were diluted with PBS at a 1:1 ratio. To prepare protein extracts, cells were collected by centrifugation and lysed by freezing and thawing at least 10 times in hypotonic buffer [10 mM KCl, 1.5 mM MgCl2, and 10 mM HEPES (pH 7.9)] with a protease inhibitor mix (Sigma). After centrifugation at 15,000 rpm 4 °C for 15 min, proteins were quantified using a BCA protein assay kit (Thermo Fisher Scientific). Total protein (200 μg) diluted in 300 μL of binding buffer [0.05% Tween-20, 10% glycerol, 0.2 M KCl, and 20 mM HEPES (pH 7.9)] were mixed with 50 μL of peptide/small molecule-bead resin and incubated at 4 °C for 2 h on a rotator. The protein-bound beads were collected by centrifugation at 2400 × g for 3 min and washed five times with binding buffer. The beads were resuspended in 25 μL of SDS sample buffer, heated at 95 °C for 5 min, and subjected to SDS/PAGE and immunoblotting.

[1] = tested on: p62-positive and WIPI2-positive punctate structures; test: ICC of WIPI2-p62 co-localization in HeLa cells; assay type: cell-based; details: HeLa, endogenous WIPI2, 2.5 μM, 24 h
Experimental: (§1) Cells were cultured on coverslips coated with poly-L-lysine (Sigma) to observe cellular localization of proteins. Using 4% paraformaldehyde in PBS (pH 7.4), the cells were fixed for 15 min at room temperature and washed three times for 5 min with PBS. After fixing, the cells were permeabilized with 0.5% Triton X-100 in PBS solution for 15 min and washed three times with PBS for 5 min. The cells were blocked containing 2% BSA in PBS solution for 1 h at room temperature. Subsequently, the cells were incubated with primary antibody diluted in 2% BSA/PBS solution overnight at 4 °C, followed by washing the cells three times for 10 min with PBS and incubated with Alexa Fluor-conjugated secondary antibody diluted in 2% BSA/PBS for 30 min at room temperature. Using a DAPI-containing mounting medium (Vector Laboratories), the coverslips were mounted on glass slides. Confocal images were taken by laser scanning confocal microscope 510 Meta (Zeiss) and analyzed by Zeiss LSM Image Browser (ver. 4.2.0.121). […] Quantification results are shown as mean ± S.D. or S.E.M. of three independent experiments
Supplementary Fig. 2. Characterization of p62-ZZ ligands (a, c, e) 3-D modeling of p62 […]
μM, 6 h). (m) Quantification of l for co-localization (n=3, 50 cells). Scale bar, 10 µm. (n) […]

[2] = tested on: p62 and the lysosomal marker LAMP1; test: ICC of LAMP1-p62 co-localization in HeLa cells; assay type: cell-based; details: 2.5 μM, 24 h
Experimental: as §1, with “experiments […]” for “experiments”
Supplementary Fig. 2. Characterization of p62-ZZ ligands (a, c, e) 3-D modeling of p62 ZZ ligands YOK-1304, YOK-2204 and YTK-105, respectively. (b, d, f) 2-D diagram for YOK-1304, YOK-2204 and YTK-105, respectively. (g,h) ICC of HeLa cells treated with the indicated compounds (2.5 μM, 24 h). Scale bar, 10 μm. (i) Quantification of h for co-localization (n=3, 50 cells). (j) ICC of HeLa cells treated with the indicated compounds (2.5 μM, 24 h). Scale bar, 10 μm. (k) Quantification of j for co-localization (n=3, 50 cells). (l) ICC of HeLa cells transiently expressing WIPI2-GFP and treated with the indicated compounds (2.5 μM, 6 h). (m) Quantification of l for co-localization (n=3, 50 cells). Scale bar, 10 µm. (n) […]

T1 sequence (Q13501 whole entry): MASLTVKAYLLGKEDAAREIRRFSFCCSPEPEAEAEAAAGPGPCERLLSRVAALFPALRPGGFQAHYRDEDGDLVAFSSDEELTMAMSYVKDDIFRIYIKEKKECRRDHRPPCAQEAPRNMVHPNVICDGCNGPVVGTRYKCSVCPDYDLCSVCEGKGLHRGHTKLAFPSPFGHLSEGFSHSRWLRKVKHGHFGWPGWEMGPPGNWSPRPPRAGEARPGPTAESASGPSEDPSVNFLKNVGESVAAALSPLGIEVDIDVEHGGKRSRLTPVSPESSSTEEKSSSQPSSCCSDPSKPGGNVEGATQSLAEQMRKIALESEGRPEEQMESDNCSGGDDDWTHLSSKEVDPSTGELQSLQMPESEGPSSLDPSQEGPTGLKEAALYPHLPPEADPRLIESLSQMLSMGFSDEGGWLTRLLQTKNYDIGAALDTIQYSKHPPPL

OCCNCCNCc1cccc(OCc2ccc(F)cc2)c1 [YT-8-8]
binding of p62 in pulldown (p62): bound
WIPI2-p62 colocalization, AVG of cells of 50 [1]: 43.3333
WIPI2-p62 colocalization, percentage AVG [1]: 86.6667%
WIPI2-p62 colocalization, cells of 50 cells counted ([1]; single experiments): 42 and 39 and 49
LAMP1-p62 colocalization, AVG of cells of 50 [2]: 33
LAMP1-p62 colocalization, percentage AVG [2]: 66%
LAMP1-p62 colocalization, cells of 50 cells counted ([2]; single experiments): 32 and 38 and 29

Reference: publication PMC8850458, “The AUTOTAC chemical biology platform for targeted protein degradation via the autophagy-lysosome system” (Nature Communications, 2022)
